Data published in patent publication US6900219B2, “ABCA-1 elevating compounds” (CV Therapeutics, Inc., priority 2002, dated 2005).

Test system: ABCA-1 gene
Assay: compounds tested and found to elevate cellular expression of the ABCA-1 gene (Examples 1-6; test not named)
Assay type: cell-based
Experimental: Activity testing is conducted as described in those patents and patent applications referenced above, and in the Examples below, and by methods apparent to one skilled in the art.

## N#Cc1c(NC(=O)c2ccc(Br)o2)sc2ccccc12 [(5-bromo(2-furyl)-N-(3-cyanobenzo[b]thiophen-2-yl)carboxamide]
  cellular expression of the ABCA-1 gene: elevate cellular expression of the ABCA-1 gene

## CCCCNC(=O)N(Cc1ccco1)C(C)c1nc2cc(Cl)ccc2c(=O)n1-c1ccc(C)cc1 (stereo not drawn) [(butylamino)-N-{[7-chloro-3-(4-methylphenyl)-4-oxo(3-hydroquinazolin-2-yl)]ethyl}-N-(2-furylmethyl)carboxamide]
  cellular expression of the ABCA-1 gene: elevate cellular expression of the ABCA-1 gene

## CCCCNC(=O)N(CCC(C)C)C(C)c1nc2cc(Cl)ccc2c(=O)n1-c1ccc(C)cc1 (stereo not drawn) [(butylamino)-N-{[7-chloro-3-(4-methylphenyl)-4-oxo(3-hydroquinazolin-2-yl)]ethyl}-N-(3-methylbutyl)carboxamide]
  cellular expression of the ABCA-1 gene: elevate cellular expression of the ABCA-1 gene

## O=C(Nc1ccc2c(c1)CCC2)NC1CCCCC1 [(cyclohexylamino)-N-indan-5-ylcarboxamide]
  cellular expression of the ABCA-1 gene: elevate cellular expression of the ABCA-1 gene

## CN(C)c1ccc(CN(C(=O)Nc2ccccc2F)c2ccc3c(c2)CCC3)cc1 [({[4-(dimethylamino)phenyl]methyl}indan-5-ylamino)-N-(2-fluorophenyl)carboxamide]
  cellular expression of the ABCA-1 gene: elevate cellular expression of the ABCA-1 gene

## CCc1c(C(=O)NC(C)C(C)C)cnn1-c1nc(-c2ccc(C)cc2)cs1 (stereo not drawn) [N-(1,2-dimethylpropyl){5-ethyl-1-[4-(4-methylphenyl)(1,3-thiazol-2-yl)]pyrazol-4-yl}carboxamide]
  cellular expression of the ABCA-1 gene: elevate cellular expression of the ABCA-1 gene

## O=C(Nc1nccs1)c1ccc(OC(F)(F)F)cc1 [N-(1,3-thiazol-2-yl)[4-(trifluoromethoxy)phenyl]carboxamide]
  cellular expression of the ABCA-1 gene: elevate cellular expression of the ABCA-1 gene

## O=C(NC1=NCCS1)c1ccc(C(F)(F)F)cc1 [N-(1,3-thiazolin-2-yl)[4-(trifluoromethyl)phenyl]carboxamide]
  cellular expression of the ABCA-1 gene: elevate cellular expression of the ABCA-1 gene

## CCCCN(CC(=O)N1CCc2ccccc2C1)C(=O)Nc1cccc(Cl)c1Cl [N-(2,3-dichlorophenyl)[butyl(2-oxo-2-(2-1,2,3,4-tetrahydroisoquinolyl)ethyl)amino]carboxamide]
  cellular expression of the ABCA-1 gene: elevate cellular expression of the ABCA-1 gene

## Cc1ccc(C)c(NC(=O)c2sc3ccccc3c2Cl)c1 [N-(2,5-dimethylphenyl)(3-chlorobenzo[b]thiophen-2-yl)carboxamide]
  cellular expression of the ABCA-1 gene: elevate cellular expression of the ABCA-1 gene

## Cc1cccc(C)c1NC(=O)c1sc2ccccc2c1Cl [N-(2,6-dimethylphenyl)(3-chlorobenzo[b]thiophen-2-yl)carboxamide]
  cellular expression of the ABCA-1 gene: elevate cellular expression of the ABCA-1 gene

## O=C(Nc1cccc(Cl)c1)Nc1ccccc1Cl [N-(2-chlorophenyl)[(3-chlorophenyl)amino]carboxamide]
  cellular expression of the ABCA-1 gene: elevate cellular expression of the ABCA-1 gene

## O=C(Nc1cccc(Cl)c1)Nc1ccccc1F [N-(2-fluorophenyl)[(3-chlorophenyl)amino]carboxamide]
  cellular expression of the ABCA-1 gene: elevate cellular expression of the ABCA-1 gene

## COc1cc2c(cc1NC(=O)C(C)(C)C)oc1ccccc12 [N-(2-methoxydibenzo[b,d]furan-3-yl)-2,2-dimethylpropanamide]
  cellular expression of the ABCA-1 gene: elevate cellular expression of the ABCA-1 gene

## CC(C)CN(C(=O)Nc1cccc2ccccc12)C(C)c1nc2ccccc2c(=O)n1-c1ccc2ccccc2c1 (stereo not drawn) [N-(2-methylpropyl)(naphthylamino)-N-[(3-(2-naphthyl)-4-oxo(3-hydroquinazolin-2-yl))ethyl]carboxamide]
  cellular expression of the ABCA-1 gene: elevate cellular expression of the ABCA-1 gene

## CC(C)CN(C(=O)Nc1cccc(C(F)(F)F)c1)C(C)c1nc2ccccc2c(=O)n1-c1ccc2ccccc2c1 (stereo not drawn) [N-(2-methylpropyl)-N-[(3-(2-naphthyl)-4-oxo(3-hydroquinazolin-2-yl))ethyl]{[3-(trifluoromethyl)phenyl]amino}carboxamide]
  cellular expression of the ABCA-1 gene: elevate cellular expression of the ABCA-1 gene

## CSc1ccc(NC(=O)N(CC(C)C)C(C)c2nc3ccccc3c(=O)n2-c2ccc3ccccc3c2)cc1 (stereo not drawn) [N-(2-methylpropyl)[(4-methylthiophenyl)amino]-N-[(3-(2-naphthyl)-4-oxo(3-hydroquinazolin-2-yl))ethyl]carboxamide]
  cellular expression of the ABCA-1 gene: elevate cellular expression of the ABCA-1 gene

## O=C(Nc1ccc2c(c1)OCCO2)c1ccc([N+](=O)[O-])cc1Cl [N-(2H,3H-benzo[e]1,4-dioxan-6-yl)(2-chloro-4-nitrophenyl)carboxamide]
  cellular expression of the ABCA-1 gene: elevate cellular expression of the ABCA-1 gene

## O=C(COCc1ccccc1)Nc1ccc2c(c1)OCCO2 [N-(2H,3H-benzo[e]1,4-dioxin-6-yl)-2-(phenylmethoxy)acetamide]
  cellular expression of the ABCA-1 gene: elevate cellular expression of the ABCA-1 gene

## O=C(CCC1CCCC1)Nc1ccc2c(c1)OCCO2 [N-(2H,3H-benzo[e]1,4-dioxin-6-yl)-3-cyclopentylpropanamide]
  cellular expression of the ABCA-1 gene: elevate cellular expression of the ABCA-1 gene

## CC(C)(C)c1ccc(C(=O)Nc2ccc3c(c2)OCCO3)cc1 [N-(2H,3H-benzo[e]1,4-dioxin-6-yl)[4-(tert-butyl)phenyl]carboxamide]
  cellular expression of the ABCA-1 gene: elevate cellular expression of the ABCA-1 gene

## O=C(Nc1ccc2c(c1)OCCO2)Nc1ccccc1Br [N-(2H,3H-benzo[e]1,4-dioxin-6-yl)[(2-bromophenyl)amino]carboxamide]
  cellular expression of the ABCA-1 gene: elevate cellular expression of the ABCA-1 gene

## O=C(Nc1ccc2c(c1)OCCO2)Nc1ccc([N+](=O)[O-])cc1Cl [N-(2H,3H-benzo[e]1,4-dioxin-6-yl)[(2-chloro-4-nitrophenyl)amino]carboxamide]
  cellular expression of the ABCA-1 gene: elevate cellular expression of the ABCA-1 gene

## O=C(Nc1ccc(Cl)c(Cl)c1)Nc1ccc2c(c1)OCCO2 [N-(2H,3H-benzo[e]1,4-dioxin-6-yl)[(3,4-dichlorophenyl)amino]carboxamide]
  cellular expression of the ABCA-1 gene: elevate cellular expression of the ABCA-1 gene

## O=C(Nc1ccc2c(c1)OCOC2)c1sc2ccccc2c1Cl [N-(2H,4H-benzo[e]1,3-dioxan-7-yl)(3-chlorobenzo[b]thiophen-2-yl)carboxamide]
  cellular expression of the ABCA-1 gene: elevate cellular expression of the ABCA-1 gene

## O=C(Nc1cccc(O)c1)Nc1ccc(Cl)c(Cl)c1 [N-(3,4-dichlorophenyl)[(3-hydroxyphenyl)amino]carboxamide]
  cellular expression of the ABCA-1 gene: elevate cellular expression of the ABCA-1 gene

## Cc1ccc(NC(=O)Nc2ccc(Cl)c(Cl)c2)cc1 [N-(3,4-dichlorophenyl)[(4-methylphenyl)amino]carboxamide]
  cellular expression of the ABCA-1 gene: elevate cellular expression of the ABCA-1 gene

## O=C(NCC1CCCCC1)Nc1ccc(Cl)c(Cl)c1 [N-(3,4-dichlorophenyl)[(cyclohexylmethyl)amino]carboxamide]
  cellular expression of the ABCA-1 gene: elevate cellular expression of the ABCA-1 gene

## Cc1ccc(NC(=O)c2ccc3ccccc3c2)cc1C [N-(3,4-dimethylphenyl)-2-naphthylcarboxamide]
  cellular expression of the ABCA-1 gene: elevate cellular expression of the ABCA-1 gene

## Cc1ccc(NC(=O)Nc2cccc(Cl)c2)cc1C [N-(3,4-dimethylphenyl)[(3-chlorophenyl)amino]carboxamide]
  cellular expression of the ABCA-1 gene: elevate cellular expression of the ABCA-1 gene

## Cc1ccc(NC(=O)Nc2ccc(Cl)cc2)cc1C [N-(3,4-dimethylphenyl)[(4-chlorophenyl)amino]carboxamide]
  cellular expression of the ABCA-1 gene: elevate cellular expression of the ABCA-1 gene

## O=C(Nc1cccc(Cl)c1)c1ccc2ccccc2c1 [N-(3-chlorophenyl)-2-naphthylcarboxamide]
  cellular expression of the ABCA-1 gene: elevate cellular expression of the ABCA-1 gene

## Cc1cccc(NC(=O)c2cc3ccccc3oc2=O)c1 [N-(3-methylphenyl)(2-oxochromen-3-yl)carboxamide]
  cellular expression of the ABCA-1 gene: elevate cellular expression of the ABCA-1 gene

## O=C(Nc1nc(-c2ccc3ccccc3c2)cs1)c1cccc(C(F)(F)F)c1 [N-(4-(2-naphthyl)(1,3-thiazol-2-yl))[3-(trifluoromethyl)phenyl]carboxamide]
  cellular expression of the ABCA-1 gene: elevate cellular expression of the ABCA-1 gene

## O=C(Nc1nc(-c2ccc3ccccc3c2)cs1)c1ccc(OC(F)(F)F)cc1 [N-(4-(2-naphthyl)(1,3-thiazol-2-yl))[4-(trifluoromethoxy)phenyl]carboxamide]
  cellular expression of the ABCA-1 gene: elevate cellular expression of the ABCA-1 gene

## CC(=O)c1ccc(NC(=O)c2ccc(F)cc2)cc1 [N-(4-acetylphenyl)(4-fluorophenyl)carboxamide]
  cellular expression of the ABCA-1 gene: elevate cellular expression of the ABCA-1 gene

## CC(=O)c1ccc(NC(=O)Nc2cccc(Cl)c2)cc1 [N-(4-acetylphenyl)[(3-chlorophenyl)amino]carboxamide]
  cellular expression of the ABCA-1 gene: elevate cellular expression of the ABCA-1 gene

## O=C(Nc1ccc(Br)cc1)c1ccc2ccccc2c1 [N-(4-bromophenyl)-2-naphthylcarboxamide]
  cellular expression of the ABCA-1 gene: elevate cellular expression of the ABCA-1 gene

## N#Cc1cccc(C(=O)Nc2nc3c(Cl)cccc3s2)c1 [N-(4-chlorobenzothiazol-2-yl)(3-cyanophenyl)carboxamide]
  cellular expression of the ABCA-1 gene: elevate cellular expression of the ABCA-1 gene

## O=C(Nc1nc2c(Cl)cccc2s1)c1cccc(F)c1 [N-(4-chlorobenzothiazol-2-yl)(3-fluorophenyl)carboxamide]
  cellular expression of the ABCA-1 gene: elevate cellular expression of the ABCA-1 gene

## N#Cc1ccc(C(=O)Nc2nc3c(Cl)cccc3s2)cc1 [N-(4-chlorobenzothiazol-2-yl)(4-cyanophenyl)carboxamide]
  cellular expression of the ABCA-1 gene: elevate cellular expression of the ABCA-1 gene

## O=C(Nc1nc2c(Cl)cccc2s1)c1ccco1 [N-(4-chlorobenzothiazol-2-yl)-2-furylcarboxamide]
  cellular expression of the ABCA-1 gene: elevate cellular expression of the ABCA-1 gene
